Data on six compounds can be found in EPA's ToxValDB 9.5.

One series has as its system Canidae. The settings on record: chronic, duration: 1 years, oral, diet, Dog Other.
For the next series, the system named is Oryctolagus sp. The note with it: for LD50: acute.
Series [1] concerns Rattus norvegicus.
In series [2] the test system is Rattus norvegicus. The settings on record: oral, gavage, M/F, Fischer 344.
Series [3] concerns Rattus norvegicus. The note with it: oral.
Series [4] has as its system Rattus norvegicus. The settings on record: oral, M/F.
The mark [5] stands for this setting: M, increased serum bilirubin and aspartate aminotransferase, increased urinary volume.
[6] abbreviates: developmental, duration: 6 days, oral, ICR.
Where [7] appears, read: reproduction developmental, duration: 6 days, oral, F, ICR.
The mark [8] stands for this setting: short-term, duration: 13 days, oral, gavage, B6C3F1.
[9] abbreviates: short-term, duration: 16 days, oral, gavage, B6C3F1.
Where [10] appears, read: subchronic, duration: 13 weeks, oral, gavage, B6C3F1.
Setting [11] is: reproduction developmental, duration: 13 days, oral, F, Japanese White.
[12] abbreviates: chronic, duration: 103 weeks, oral, gavage, F, Fischer 344.
Setting [13] is: developmental, duration: 7 days, oral, Wistar.
Where [14] appears, read: short-term, duration: 13 days, oral, gavage, Fischer 344.
[15] abbreviates: short-term, duration: 13 days, oral, gavage, M, Fischer 344.
Where [16] appears, read: short-term, duration: 16 days, oral, gavage, Fischer 344.
[17] abbreviates: subchronic, duration: 30 days, oral, M, Sprague-Dawley.
[18] abbreviates: subchronic, duration: 30 days, oral, Sprague-Dawley.
[19] abbreviates: subchronic, reduced body weight.

For the compound `COC(=O)c1ccccc1S(=O)(=O)NC(=O)N(C)c1nc(C)nc(OC)n1` [Tribenuron-methyl], in the series on Canidae (setting [5]), the LEL amounted to 8.16 mg/kg-day and the NOEL worked out at 0.79 mg/kg-day.
In the case of `C=C(C)[C@H]1CC=C(C)CC1` [D-Limonene], the no observed adverse effect level (NOAEL) (usually the highest dose or exposure tested at which no adverse effect was seen) in the series with Mus musculus (chronic, duration: 103 weeks, oral, gavage, B6C3F1) is 500 mg/kg-day; in the series on Mus musculus (setting [6]), 591 mg/kg-day; with Mus musculus (setting [7]), 591 mg/kg-day; in the series with Mus musculus (setting [8]), 500 mg/kg-day; in the series with Mus musculus (setting [9]) it was 1650 mg/kg-day; with Mus musculus (setting [10]) it was 500 mg/kg-day. Also, the NOAEL is 250 mg/kg-day with Oryctolagus sp. (setting [11]); over 1000 mg/kg-day with Oryctolagus sp. (reproduction developmental, duration: 13 days, oral, Japanese White, generation: F1); 300 mg/kg-day in the series on Rattus norvegicus [1] (setting [12]); 591 mg/kg-day with Rattus norvegicus [1] (setting [13]); 591 mg/kg-day in the series on Rattus norvegicus [1] (reproduction developmental, duration: 7 days, oral, F, Wistar); 300 mg/kg-day with Rattus norvegicus [1] (setting [14]). Besides, the NOAEL stood at 5 mg/kg-day in the series on Rattus norvegicus [1] (setting [15]), 1650 mg/kg-day with Rattus norvegicus [1] (setting [16]), 1380 mg/kg-day with Rattus norvegicus [1] (setting [17]) and 1380 mg/kg-day in the series with Rattus norvegicus [1] (setting [18]). The lowest observed adverse effect level (LOAEL) (usually the lowest dose or exposure tested at which an adverse effect was seen) with Mus musculus (chronic, duration: 103 weeks, oral, gavage, F, B6C3F1) was 1000 mg/kg-day; with Mus musculus (setting [6]) it was 2360 mg/kg-day; in the series with Mus musculus (setting [7]), 2360 mg/kg-day; in the series on Mus musculus (setting [8]) it was 1000 mg/kg-day; in the series on Mus musculus (setting [9]) it was 3300 mg/kg-day; with Mus musculus (setting [10]), 1000 mg/kg-day. The LOAEL turned out to be 500 mg/kg-day in the series on Oryctolagus sp. (setting [11]); 600 mg/kg-day with Rattus norvegicus [1] (setting [12]); 75 mg/kg-day with Rattus norvegicus [1] (chronic, duration: 103 weeks, oral, gavage, M, Fischer 344); 2870 mg/kg-day with Rattus norvegicus [1] (setting [13]); 600 mg/kg-day in the series on Rattus norvegicus [1] (setting [14]); 30 mg/kg-day with Rattus norvegicus [1] (setting [15]). For the same compound, the figures for the LOAEL in the series on Rattus norvegicus [1] (setting [16]), in the series on Rattus norvegicus [1] (setting [17]) and in the series on Rattus norvegicus [1] (setting [18]) were 3300 mg/kg-day, 2770 mg/kg-day and 2770 mg/kg-day, respectively. The values for the LOAEC in the series on Mus musculus (setting [9]) and in the series on Rattus norvegicus [1] (setting [16]) were 3300 mg/kg-day and 1650 mg/kg-day, respectively. Also, the NOEL with Rattus norvegicus [2] (subchronic, duration: 13 weeks, Deaths + Clinical Observation: Rough hair coats Excessive lacrimation + Body Weight Changes: decrease + Histopathology: Kidney-Nephropathy) was under 150 mg/kg-day.
Regarding `CCN(CC)C(=S)[S-].[Na+]` [Sodium diethyldithiocarbamate], the NOEL was 30 mg/kg-day in the series with Rattus norvegicus [3] (subchronic, duration: 90 days, Eye: Cataracts + Whole body: Decreased weight) and 30 mg/kg-day in the series on Rattus norvegicus [4] (setting [19]). The lowest-observed-adverse-effect level (LOAEL) in the series on Rattus norvegicus [4] (chronic, Reduced body weight and cataracts in females) was 62.5 mg/kg-day; in the series on Rattus norvegicus [4] (setting [19]), 100 mg/kg-day.
Regarding `[O]=[Sb](=[O])[O][Sb](=[O])=[O]` [Antimony pentoxide], the LOAEL in the series with Rattus norvegicus [3] (chronic, drinking water, blood: Altered chemistries + Whole body: Increased mortality) worked out at 0.46 mg/kg-day.
In the case of `CC(C)(C)C(=O)O` [2,2-Dimethylpropanoic acid], the LC50 (commonly the concentration that kills 50% of the test population) in the series on Mus musculus (acute, inhalation, Swiss) was under 4 µg/mL; in the series with Rattus norvegicus [1] (acute, inhalation, Wistar), under 4 µg/mL. Also, the LD50 (as a rule, the dose at which mortality reaches 50%) stood at 3160 mg/kg with Oryctolagus sp. (dermal) and 3160 mg/kg with Oryctolagus sp. (dermal, semiocclusive). For the same compound, the NOAEL with Oryctolagus sp. (repeat dose other, dermal, M) was found to be 300 mg/kg-day; in the series on Oryctolagus sp. (repeat dose other, dermal, semiocclusive), 300 mg/kg-day; in the series with Rattus norvegicus [1] (short-term, duration: 28 days, oral, gavage, Fischer 344) it was 300 mg/kg-day; with Rattus norvegicus [2] (short-term, duration: 28 days, Clinical Observation: Head shaking Sneezing Dark nasal discharge + Blood Chemistry: ALP increase, T-Cho increase, T-Bil increase + Absolute …), 300 mg/kg-day.
In the case of `COC(=O)c1ccccc1CS(=O)(=O)NC(=O)Nc1nc(OC)cc(OC)n1` [Bensulfuron-methyl], in the series on Canidae (F, liver effects), the LEL was 223 mg/kg-day and the NOEL was 19.9 mg/kg-day. In the series with Canidae (M, liver effects), this compound showed an LEL of 237 mg/kg-day and an NOEL of 21.4 mg/kg-day.
